102 molecules from ChEMBL document CHEMBL3507680, “University of Dundee, Gates Library screen for HepG2 cell viability” can be followed below.

SMILES strings stand for the structures.

This series can be described thus: Human HepG2 cell viability assay in 384 well format. It counts as toxicity, cell-based. To be noted: HepG2 cells, read-out: Inhibition. On the set-up: dose 125 nL, time 70.5 hour; cytotoxicity at 70.5 h: concentration not given beside the values.
For the molecule `O=C(c1ccncc1)N(CCO)Cc1cc(Br)ccc1F`, the cytotoxicity at 70.5 h is -10.4%.
`COc1ccccc1C1(CNCc2cccc(C#N)c2)CCOCC1`: the cytotoxicity at 70.5 h was -9.16%.
With `Cc1cc(C)cc(OCCCn2nc3ccccn3c2=O)c1`, the cytotoxicity at 70.5 h was -13.4%.
Regarding `O=C(NCCC(=O)N1CCCC1)c1cccnc1`, the cytotoxicity at 70.5 h worked out at 17.4%.
`Cc1ccc(OCCSCCn2nc3ccccn3c2=O)cc1`: the cytotoxicity at 70.5 h was -10.4%.
For the molecule `COc1cccc(CNCCNS(=O)(=O)Cc2ccccc2)c1`, the cytotoxicity at 70.5 h was -6.4%.
The value for `COCCC(Cc1cccc(Br)c1)C(N)=O` (configuration not stated) was -7.63%.
The value for `CC(C)CC(Cc1cccc(Br)c1)C(=O)O` (configuration not stated) was 22.2%; that for `CCCNC(=O)CNc1ccccc1OCCC(=O)OC` was -7.23%.
The value for `CC1CCC(NC(=O)NCC(C)(C)CCS(C)(=O)=O)CC1` (configuration not stated) was -4.98%.
Take `CNC(=O)CN(C(=O)c1ccc(SC)o1)c1cccc(F)c1`: the cytotoxicity at 70.5 h is -0.365%.
For `CCCN1CCCN(S(=O)(=O)c2cnc3onc(C)c3c2)CC1` the value was 2.21%; for `O=c1[nH]c2csnc2c(=O)n1Cc1ccc(Br)cc1`, -10.2%.
The value for `CN(C)c1nc(CNC(=O)N[C@H](CO)c2ccccc2)cs1` was 30.7%; that for `CCN(Cc1ccc(Cl)c(Cl)c1)C(=O)CCn1cncn1` was -10.7%.
Regarding `Cc1cccc2nc(CNCc3cccc4c3OCCCO4)cn12`, the cytotoxicity at 70.5 h is -0.513%.
For `Cc1noc(C)c1Cc1nc(N(C)C)no1` the value was -12.3%; for `CC(C)OCCSCCn1nc2ccccn2c1=O`, -12.9%; for `Cc1cc(C(=O)N2CCCN(c3nccs3)CC2)c(C)n1C(C)C`, 29.5%.
In the case of `COCCN(c1ccncc1)S(=O)(=O)c1cc(C)c(F)cc1F`, the cytotoxicity at 70.5 h is 15.9%.
Turning to `CC(C)OCCN(C)CC(c1cccs1)N1CCOCC1` (configuration not stated), the cytotoxicity at 70.5 h stood at 29.2%.
For the molecule `N#Cc1cc(F)c(NCCc2ccc(S(N)(=O)=O)cc2)c(F)c1`, the cytotoxicity at 70.5 h is -2.35%.
In the case of `CN(C)c1ncc(CNC(=O)Nc2ccccc2F)n1C`, the cytotoxicity at 70.5 h was -1.14%.
For `CC(O)(CNc1ccccn1)c1ccccc1` (configuration not stated) the value was 19.5%; for `COc1cccc(C(=O)NC(C)CCN2CCOCC2)c1F` (configuration not stated), -5.81%.
For the molecule `CCS(=O)(=O)c1ccc(CNc2c(Cl)cccc2C#N)cc1`, the cytotoxicity at 70.5 h is -1.09%.
The value for `CN(C1CCCC1)C(C)(C)C(=O)NCCNC(N)=O` was -0.603%.
On to `O=C(CCc1ccccc1)N1CCCCC1C1OCCO1` (configuration not stated), for which the cytotoxicity at 70.5 h is -3.98%.
Consider `COc1cccc(CSCC(=O)NCc2cccnc2)c1`, for which the cytotoxicity at 70.5 h was -3.51%.
As to `CC1CN(C(=O)NCCn2ccnc2)CCO1` (configuration not stated), the cytotoxicity at 70.5 h was -1.49%.
Regarding `O=C(CCN1CCSCC1c1ccccc1)N1CCOCC1` (configuration not stated), the cytotoxicity at 70.5 h is 7.46%.
With `Cc1nccc(CNS(=O)(=O)N(C)Cc2ccc(Cl)cc2)n1`, the cytotoxicity at 70.5 h was 8.78%.
For `O=C1CC(NS(=O)(=O)N2CCOCC2)CN1Cc1ccccc1` (configuration not stated) the value was -5.68%; for `CN(C)C(=O)c1cccc(NC(=O)N2CCCC(C(F)(F)F)C2)c1` (configuration not stated), -8.44%; for `O=C(CN1CCCNC1=O)Nc1ccccc1SC(F)(F)F`, 21.5%.
For `c1ccc2nc(N3CCCC(Cn4cncn4)C3)cnc2c1` (configuration not stated), the cytotoxicity at 70.5 h was -1.5%.
Take `O=C(NCC[S+]([O-])c1ccccc1)NCC(F)(F)F` (configuration not stated): the cytotoxicity at 70.5 h was -7.27%.
For the molecule `CCN(c1ccc(C(=O)NCc2cc[nH]n2)cc1)C(C)C`, the cytotoxicity at 70.5 h was 22.1%.
The value for `CC(C)(O)CNc1ccc(C#N)c(C(F)(F)F)c1` was -1.99%; that for `O=C(CN1CCCNC1=O)Nc1ccccc1C(=O)C1CCCC1` was -0.928%.
The value for `Cc1cc(CCC(=O)N2CCC(O)CC2)ccc1Br` was -0.947%; that for `CN(CC(F)F)C(=O)c1cn(-c2ccc(Br)cc2)cn1` was 3.66%; that for `CSC(C)(C)CNC(=O)NCC[S+]([O-])c1ccccc1` (configuration not stated) was -6.22%.
For `CC(C)c1nc(CNc2ccc(CCO)cc2)cs1` the value was 25.6%; for `CCN(C(=O)CN(CC(N)=O)C(C)C)C1=CCCC1`, 22.8%.
Turning to `Cc1cc(Br)cnc1NCCN1CCC(N(C)C)CC1`, the cytotoxicity at 70.5 h is -4.2%.
On to `CCc1nc(CNCC2(C(N)=O)CCOCC2)cs1`, for which the cytotoxicity at 70.5 h is -4.76%.
The value for `COC1CCN(CCNc2ncc(Br)cc2C)CC1` was -1.86%; that for `Cc1nn(C)c(Oc2cccnc2)c1NC(=O)C1CCCO1` (configuration not stated) was -3.71%.
`CC(Cn1cccn1)NCc1csc(-c2ccc3c(c2)OCO3)n1` (configuration not stated): the cytotoxicity at 70.5 h was -5.39%.
The value for `Cc1nn(C)c(Oc2cccc(F)c2)c1NC(=O)C1CCOCC1` was -14.1%; that for `CC(Cn1cccn1)NCc1nc(-c2ccc3c(c2)OCO3)no1` (configuration not stated) was 13%.
For `O=C(Nc1ncn(Cc2cccc(Br)c2)n1)C1CCC1` the value was -13.9%.
As for `O=C(NCc1nnc2n1CCC2)N1CCC2(CCCCC2)CC1`, the cytotoxicity at 70.5 h is -12.2%.
Consider `CCc1nc(CC(=O)NCC2(C(N)=O)CCOCC2)cs1`, for which the cytotoxicity at 70.5 h was -6.76%.
As for `CN(CC(=O)N(C)C1CCCCC1)Cc1nc2ccccc2c(=O)[nH]1`, the cytotoxicity at 70.5 h is -6.53%.
For `CCN(CC)c1ccc(CNS(=O)(=O)C2CCOCC2)cc1F` the value was -10.6%.
On to `CS(=O)(=O)Cc1nc(CN2CCC(C(F)(F)F)CC2)cs1`, for which the cytotoxicity at 70.5 h is -8.36%.
`CS(=O)(=O)Cc1nc(CN2CC=C(c3ccccc3)CC2)cs1`: the cytotoxicity at 70.5 h is -10.5%.
The value for `Cc1ccccc1NS(=O)(=O)c1ccc(C(=O)O)cc1F` was -2.98%.
For `O=C1NC2(Nc3ncccc31)C(=O)Nc1c2ccc(Cl)c1F` (configuration not stated) the value was -6.95%; for `CNC(=O)Cc1noc(Cc2cccc(Cl)c2)n1`, -12.1%; for `Cn1cc(NC(=O)c2ccccn2)cc(Br)c1=O`, -4.48%.
In the case of `Cc1cc(=O)c(C(=O)N(C)Cc2ccc(Cl)c(F)c2)c[nH]1`, the cytotoxicity at 70.5 h is -1.6%.
Regarding `Cc1csc(N2CCC(NCC3(O)CCc4ccccc43)CC2)n1` (configuration not stated), the cytotoxicity at 70.5 h is -7.31%.
As to `CC(C1CC1)N(C)C(=O)CCn1cccn1` (configuration not stated), the cytotoxicity at 70.5 h amounted to 8.62%.
Turning to `CN(CC(=O)N(C)C1CCCCC1)Cc1nc2c(cnn2C)c(=O)[nH]1`, the cytotoxicity at 70.5 h came to 8.15%.
For `OC1(CNC2CCN(Cc3ccncc3)CC2)CCc2ccccc21` (configuration not stated) the value was -5.39%; for `CC(NCCCC#N)c1ccc(S(C)(=O)=O)c(F)c1` (configuration not stated), 9.59%; for `Cc1nc(CN2C[C@@H]3CN(C(=O)CC(F)(F)F)C[C@@H]3C2=O)cs1`, -9.18%.
The value for `CC(=O)NCC(=O)N1Cc2nccn2CC(CN2CCCC2=O)C1` (configuration not stated) was -7.77%; that for `O=C(C1CC=CC1)N1Cc2nccn2CC(CN2CCCC2)C1` (configuration not stated) was -4.01%; that for `Cn1ccc(C(=O)NC2CCC23CCN(C(=O)C2CCOCC2)CC3)c1` (configuration not stated) was -4.15%.
As to `CO[C@@H]1CCN(S(=O)(=O)c2cccs2)[C@H]1Cc1ccccc1`, the cytotoxicity at 70.5 h was -0.149%.
The value for `CCOCC1CN(CC2CC2)Cc2cnn(C)c21` (configuration not stated) was -8.87%.
The value for `CO[C@@H]1CCN(Cc2cccs2)[C@H]1Cc1ccncc1` was -0.408%.
With `Cn1ccc(C(=O)NC2CCC23CCN(C(=O)c2cnccn2)CC3)c1` (configuration not stated), the cytotoxicity at 70.5 h was -7.61%.
The value for `Cn1ncc2c1C(COCC1CC1)CN(CC1CC1)C2` (configuration not stated) was -6.33%; that for `Cn1ncc2c1C(COCC1CC1)CN(S(C)(=O)=O)C2` (configuration not stated) was -9.85%.
`O=C(NCc1cccnc1)N1CCn2c(Cn3cccn3)cnc2C1`: the cytotoxicity at 70.5 h is -0.141%.
As for `O=C(NCc1ccccc1)N1CCn2c(Cn3cccn3)cnc2C1`, the cytotoxicity at 70.5 h is -2.08%.
Turning to `CN(C)C(=O)N1CCc2c(COCC3CC3)cncc2C1`, the cytotoxicity at 70.5 h was -4.34%.
Consider `O=C([C@@H]1CCCO1)N1CCn2c(Cn3cccn3)cnc2C1`, for which the cytotoxicity at 70.5 h is -0.354%.
For the molecule `CCOCC(=O)N1CC[C@H]2[C@@H]1CCC(=O)N2Cc1csc(C)n1`, the cytotoxicity at 70.5 h was -10.5%.
On to `CCC(CC)CN1CCC2(CCCN(c3ncccn3)C2)C1` (configuration not stated), for which the cytotoxicity at 70.5 h is 25.1%.
For `Cc1ccc2c(c1)C1(CCN(C(N)=O)CC1)CN2C(=O)N(C)C` the value was -7.46%; for `O=C(c1cccnc1)N1CCc2c(COCC3CC3)cncc2C1`, -2.77%; for `O=C(c1ccncc1F)N1CCc2ncnc(N3CCOCC3)c2CC1`, -9.98%.
The value for `COc1ccc(CNc2c(C)nn(C(C)C)c2C)cc1OC` was -2.06%; that for `CC(NCc1cccc(C#N)c1)c1ccccn1` (configuration not stated) was -6.12%; that for `COc1cc(CNC(C)Cn2cccn2)cc2c1OCO2` (configuration not stated) was -9.7%.
The value for `Cc1nc(CN2C[C@@H]3CN(C(=O)NC(C)C)C[C@@H]3C2=O)cs1` was -5.1%.
With `O=C(NC1CCCC1)[C@H]1C[C@H]2OCC[C@H]2N(Cc2ccoc2)C1`, the cytotoxicity at 70.5 h is -4.07%.
As to `COCCNC(=O)[C@H]1C[C@H]2OCC[C@H]2N(Cc2ccoc2)C1`, the cytotoxicity at 70.5 h is -3.39%.
For `O=C1CCCN1Cc1ncn2c1CN(Cc1cccs1)CCC2` the value was -1.34%; for `CC1CCN(C(=O)[C@@H]2C[C@H]3OCC[C@H]3N(Cc3ccoc3)C2)CC1`, -2.6%.
As to `Cc1noc([C@@H]2C[C@H]3OCC[C@H]3N(Cc3cc(C)c(C)o3)C2)n1`, the cytotoxicity at 70.5 h was -6.09%.
The value for `Cc1cc(CN2C[C@@H]3COC[C@]3(CNC(=O)N(C)C)C2)no1` was -1.07%.
With `CN(C)c1ncnc2c1CCN(C(=O)c1cccnc1)CC2`, the cytotoxicity at 70.5 h is -6.66%.
For `CCc1ncnc2c1CCN(C(=O)c1ccncc1F)CC2`, the cytotoxicity at 70.5 h is -6.52%.
Turning to `Cc1noc(C)c1CN1Cc2cnn(C)c2C(COCC2CC2)C1` (configuration not stated), the cytotoxicity at 70.5 h was -10.8%.
Take `CCOCC1CN(CCN2CCCCC2)Cc2cnn(C)c21` (configuration not stated): the cytotoxicity at 70.5 h was found to be 2.16%.
